The NIST ThermoML archive (doi:10.1021/je300873x)

Assay: mn = molality of the nth substance listed, in mol/kg
Conditions: for surface tension liquid-gas: Pendant drop shape; for electrical conductivity: Liquid, Digital conductivity meter

CCCCCCCCCCCC[N+](C)(C)CCO.[Br-] [dodecyl(2-hydroxyethyl)dimethylammonium bromide] + O
Conditions | electrical conductivity [S/m] | surface tension liquid-gas [mN/m]
298.15 K, m1 = 0.001 | – | 68.12
298.15 K, m1 = 0.00201 | – | 63.05
298.15 K, m1 = 0.00402 | – | 54.51
298.15 K, m1 = 0.00602 | – | 49.15
298.15 K, m1 = 0.00803 | – | 45.74
298.15 K, m1 = 0.00949 | 0.0809 | –
298.15 K, m1 = 0.00996 | 0.0847 | –
298.15 K, m1 = 0.01004 | – | 42.61
298.15 K, m1 = 0.01049 | 0.0889 | –
298.15 K, m1 = 0.01107 | 0.0935 | –
298.15 K, m1 = 0.01172 | 0.0987 | –
298.15 K, m1 = 0.01205 | – | 39.74
298.15 K, m1 = 0.01246 | 0.1047 | –
298.15 K, m1 = 0.01286 | 0.1079 | –
298.15 K, m1 = 0.01305 | – | 38.84
298.15 K, m1 = 0.01329 | 0.111 | –
298.15 K, m1 = 0.01375 | 0.1138 | –
298.15 K, m1 = 0.01424 | 0.116 | –
298.15 K, m1 = 0.01476 | 0.1177 | –
298.15 K, m1 = 0.01506 | – | 38.78
298.15 K, m1 = 0.01533 | 0.1196 | –
298.15 K, m1 = 0.01595 | 0.121 | –
298.15 K, m1 = 0.01661 | 0.1226 | –
298.15 K, m1 = 0.01707 | – | 38.7
298.15 K, m1 = 0.01733 | 0.1248 | –
298.15 K, m1 = 0.01812 | 0.1264 | –
298.15 K, m1 = 0.01899 | 0.1281 | –
298.15 K, m1 = 0.01994 | 0.1302 | –
298.15 K, m1 = 0.02009 | – | 38.51
298.15 K, m1 = 0.03014 | – | 38.4
298.15 K, m1 = 0.05027 | – | 38.38
303.15 K, m1 = 0.00945 | 0.0886 | –
303.15 K, m1 = 0.00992 | 0.093 | –
303.15 K, m1 = 0.01045 | 0.0974 | –
303.15 K, m1 = 0.01103 | 0.1025 | –
303.15 K, m1 = 0.01168 | 0.1068 | –
303.15 K, m1 = 0.01241 | 0.1148 | –
303.15 K, m1 = 0.01281 | 0.1182 | –
303.15 K, m1 = 0.01324 | 0.1212 | –
303.15 K, m1 = 0.01369 | 0.1246 | –
303.15 K, m1 = 0.01418 | 0.128 | –
303.15 K, m1 = 0.01471 | 0.1306 | –
303.15 K, m1 = 0.01527 | 0.1326 | –
303.15 K, m1 = 0.01589 | 0.1346 | –
303.15 K, m1 = 0.01655 | 0.1364 | –
303.15 K, m1 = 0.01727 | 0.1386 | –
303.15 K, m1 = 0.01805 | 0.1407 | –
303.15 K, m1 = 0.01892 | 0.1431 | –
303.15 K, m1 = 0.01986 | 0.1451 | –
308.15 K, m1 = 0.00993 | 0.1022 | –
308.15 K, m1 = 0.01046 | 0.1072 | –
308.15 K, m1 = 0.01104 | 0.112 | –
308.15 K, m1 = 0.01169 | 0.1179 | –
308.15 K, m1 = 0.01242 | 0.1251 | –
308.15 K, m1 = 0.01282 | 0.1293 | –
308.15 K, m1 = 0.01325 | 0.1334 | –
308.15 K, m1 = 0.0137 | 0.1371 | –
308.15 K, m1 = 0.01419 | 0.1408 | –
308.15 K, m1 = 0.01472 | 0.1443 | –
308.15 K, m1 = 0.01529 | 0.1472 | –
308.15 K, m1 = 0.0159 | 0.1496 | –
308.15 K, m1 = 0.01656 | 0.152 | –
308.15 K, m1 = 0.01728 | 0.1541 | –
308.15 K, m1 = 0.01807 | 0.1567 | –
308.15 K, m1 = 0.01893 | 0.1595 | –
308.15 K, m1 = 0.01987 | 0.1621 | –
313.15 K, m1 = 0.01044 | 0.1171 | –
313.15 K, m1 = 0.01102 | 0.1229 | –
313.15 K, m1 = 0.01167 | 0.1298 | –
313.15 K, m1 = 0.0124 | 0.1376 | –
313.15 K, m1 = 0.0128 | 0.1416 | –
313.15 K, m1 = 0.01322 | 0.1461 | –
313.15 K, m1 = 0.01368 | 0.1507 | –
313.15 K, m1 = 0.01417 | 0.1556 | –
313.15 K, m1 = 0.01469 | 0.1595 | –
313.15 K, m1 = 0.01526 | 0.1638 | –
313.15 K, m1 = 0.01587 | 0.1664 | –
313.15 K, m1 = 0.01653 | 0.1694 | –
313.15 K, m1 = 0.01725 | 0.1723 | –
313.15 K, m1 = 0.01803 | 0.1749 | –
313.15 K, m1 = 0.01889 | 0.1783 | –
313.15 K, m1 = 0.01984 | 0.1813 | –
318.15 K, m1 = 0.01042 | 0.127 | –
318.15 K, m1 = 0.01099 | 0.134 | –
318.15 K, m1 = 0.01164 | 0.1411 | –
318.15 K, m1 = 0.01237 | 0.1496 | –
318.15 K, m1 = 0.01277 | 0.1543 | –
318.15 K, m1 = 0.01319 | 0.1592 | –
318.15 K, m1 = 0.01365 | 0.1643 | –
318.15 K, m1 = 0.01414 | 0.1694 | –
318.15 K, m1 = 0.01466 | 0.174 | –
318.15 K, m1 = 0.01523 | 0.1791 | –
318.15 K, m1 = 0.01583 | 0.1838 | –
318.15 K, m1 = 0.01649 | 0.1877 | –
318.15 K, m1 = 0.01721 | 0.1908 | –
318.15 K, m1 = 0.018 | 0.1933 | –
318.15 K, m1 = 0.01885 | 0.1973 | –
318.15 K, m1 = 0.0198 | 0.2012 | –
323.15 K, m1 = 0.01039 | 0.1354 | –
323.15 K, m1 = 0.01097 | 0.1447 | –
323.15 K, m1 = 0.01162 | 0.1524 | –
323.15 K, m1 = 0.01234 | 0.1613 | –
323.15 K, m1 = 0.01274 | 0.1661 | –
323.15 K, m1 = 0.01317 | 0.1716 | –
323.15 K, m1 = 0.01362 | 0.1773 | –
323.15 K, m1 = 0.01411 | 0.1832 | –
323.15 K, m1 = 0.01463 | 0.1896 | –
323.15 K, m1 = 0.01519 | 0.1954 | –
323.15 K, m1 = 0.0158 | 0.2012 | –
323.15 K, m1 = 0.01646 | 0.2061 | –
323.15 K, m1 = 0.01717 | 0.21 | –
323.15 K, m1 = 0.01795 | 0.2148 | –
323.15 K, m1 = 0.01881 | 0.2187 | –
323.15 K, m1 = 0.01975 | 0.2216 | –
